Data set [1] can be described thus: Optical characteristics, Table 3. The data set is classed as physicochemical. The note with it: for λmax, fl: 0.1 M phosphate buffer (pH 9) containing 1% DMSO; for Φfl: 0.1 M phosphate buffer (pH 9), 1% DMSO, standard 2-Me TokyoMagenta (0.42); for λmax, abs: 0.1 M phosphate buffer containing 1% DMSO.
Method: The measurement was performed in a 0.1 M phosphate buffer (pH 9) containing 1% DMSO. pKa was obtained from the absorbance measured in a phosphate buffer (pH 9) by single-phase or two-phase curve fitting. The quantum yield was obtained by using the quantum yield of 2-Me TokyoMagenta (0.42) in a 0.1 M phosphate buffer (pH 9) as the standard.
Data set [2] is described as follows: Optical characteristics, Table 2. The class given is physicochemical. Particulars: phosphate buffer (pH 9). The protocol:
The measurement was performed at pH 9.

Data set [3] can be described thus: Comparison of absorption wavelengths at pH 3 and 9 in sodium phosphate buffer (Table 1). The note with it: for λmax: sodium phosphate buffer. The data set is classed as physicochemical. Details: λmax: unit not given beside the values. On the procedure:
The results of comparison of the absorption wavelengths of 2-Me TokyoMagenta and 2-Me TokyoGreen (9-(2′-methylphenyl)-xanthen-3-one) having oxygen atom at the 10-position of the xanthene ring are shown in FIG. 2 and Table 1. The measurement was performed at pH 3 and 9 in a sodium phosphate buffer.

Data set [4] addresses T1, β-galactosidase (Escherichia coli, UniProt P00722). Kind of data set: Measurement of intracellular β-galactosidase in HEK293 cells (lacZ(+) or lacZ(−)). The data set is classed as cell-based. Details: expressed in transfected cells; host or cells: HEK293 lacZ(+). Particulars: 10 μM, 37° C., 30 minutes, excitation 580 nm, detection 600 to 620 nm. On the procedure: The bars shown in the photographs indicate 30 μm.
2-Me TokyoMagenta βgal was introduced into cells, and it was confirmed that it functioned as a fluorescent probe for β-galactosidase measurement. The HEK293 cells (lacZ(+) or lacZ(−)) were incubated with 10 μM 2-Me TokyoMagenta βgal at 37° C. for 30 minutes in the Dulbecco's modified Eagle medium (DMEM) containing 0.1% dimethyl sulfoxide, and fluorescence spectrum was measured with an excitation wavelength of 580 nm and detection wavelength of 600 to 620 nm.
Target sequence in this assay (P00722 whole entry): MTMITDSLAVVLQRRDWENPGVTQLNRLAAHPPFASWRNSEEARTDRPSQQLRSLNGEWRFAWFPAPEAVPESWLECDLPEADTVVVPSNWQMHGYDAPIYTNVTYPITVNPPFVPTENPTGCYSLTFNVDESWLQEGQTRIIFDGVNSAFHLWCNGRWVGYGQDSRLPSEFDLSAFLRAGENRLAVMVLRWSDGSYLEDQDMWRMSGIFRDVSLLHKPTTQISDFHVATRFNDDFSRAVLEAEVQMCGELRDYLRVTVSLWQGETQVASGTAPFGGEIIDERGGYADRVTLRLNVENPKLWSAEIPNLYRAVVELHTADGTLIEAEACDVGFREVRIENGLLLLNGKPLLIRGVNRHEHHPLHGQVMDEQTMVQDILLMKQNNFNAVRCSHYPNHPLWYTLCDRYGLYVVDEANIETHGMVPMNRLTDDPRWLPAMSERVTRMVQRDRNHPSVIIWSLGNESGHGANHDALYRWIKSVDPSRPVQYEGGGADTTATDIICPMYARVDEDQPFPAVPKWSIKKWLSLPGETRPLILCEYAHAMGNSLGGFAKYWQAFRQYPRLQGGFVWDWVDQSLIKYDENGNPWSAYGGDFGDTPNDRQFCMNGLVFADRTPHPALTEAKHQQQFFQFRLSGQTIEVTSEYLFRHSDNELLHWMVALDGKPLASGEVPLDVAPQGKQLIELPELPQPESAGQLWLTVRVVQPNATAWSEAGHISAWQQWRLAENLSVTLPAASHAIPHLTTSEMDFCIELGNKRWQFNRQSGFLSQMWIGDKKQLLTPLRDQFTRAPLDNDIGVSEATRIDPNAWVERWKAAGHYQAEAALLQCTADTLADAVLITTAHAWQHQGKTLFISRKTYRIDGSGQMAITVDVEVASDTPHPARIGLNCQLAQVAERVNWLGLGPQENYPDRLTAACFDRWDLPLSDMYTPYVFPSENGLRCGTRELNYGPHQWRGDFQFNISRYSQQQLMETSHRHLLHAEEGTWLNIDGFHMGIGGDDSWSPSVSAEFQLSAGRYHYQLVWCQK

Data set [5] addresses T1, β-galactosidase. Put plainly: Absorption spectra before and after treatment with β-galactosidase. The note with it: 0.1 M sodium phosphate buffer (pH 7.0), 0.1% DMSO. The class given is biochemical. On the procedure:
The characteristics of 2-Me TokyoMagenta βgal, which was designed as a fluorescent probe for β-galactosidase measurement, as an enzyme substrate and a fluorescent probe were evaluated. There are shown absorption spectra (FIG. 3, upper left graph) and fluorescence spectra (FIG. 3, upper right graph (excitation wavelength, 582 nm) and FIG. 3, lower left graph (excitation wavelength, 448 nm)) of 2-Me TokyoMagenta βgal measured before and after a treatment with β-galactosidase (6 units) in a 0.1 M sodium phosphate buffer (pH 7.0) containing 0.1% dimethyl sulfoxide. The λmax values measured before and after the reaction were 448 nm (before the reaction), and 582 nm (after the reaction), respectively.
Target sequence in this assay (P00722 2-1024): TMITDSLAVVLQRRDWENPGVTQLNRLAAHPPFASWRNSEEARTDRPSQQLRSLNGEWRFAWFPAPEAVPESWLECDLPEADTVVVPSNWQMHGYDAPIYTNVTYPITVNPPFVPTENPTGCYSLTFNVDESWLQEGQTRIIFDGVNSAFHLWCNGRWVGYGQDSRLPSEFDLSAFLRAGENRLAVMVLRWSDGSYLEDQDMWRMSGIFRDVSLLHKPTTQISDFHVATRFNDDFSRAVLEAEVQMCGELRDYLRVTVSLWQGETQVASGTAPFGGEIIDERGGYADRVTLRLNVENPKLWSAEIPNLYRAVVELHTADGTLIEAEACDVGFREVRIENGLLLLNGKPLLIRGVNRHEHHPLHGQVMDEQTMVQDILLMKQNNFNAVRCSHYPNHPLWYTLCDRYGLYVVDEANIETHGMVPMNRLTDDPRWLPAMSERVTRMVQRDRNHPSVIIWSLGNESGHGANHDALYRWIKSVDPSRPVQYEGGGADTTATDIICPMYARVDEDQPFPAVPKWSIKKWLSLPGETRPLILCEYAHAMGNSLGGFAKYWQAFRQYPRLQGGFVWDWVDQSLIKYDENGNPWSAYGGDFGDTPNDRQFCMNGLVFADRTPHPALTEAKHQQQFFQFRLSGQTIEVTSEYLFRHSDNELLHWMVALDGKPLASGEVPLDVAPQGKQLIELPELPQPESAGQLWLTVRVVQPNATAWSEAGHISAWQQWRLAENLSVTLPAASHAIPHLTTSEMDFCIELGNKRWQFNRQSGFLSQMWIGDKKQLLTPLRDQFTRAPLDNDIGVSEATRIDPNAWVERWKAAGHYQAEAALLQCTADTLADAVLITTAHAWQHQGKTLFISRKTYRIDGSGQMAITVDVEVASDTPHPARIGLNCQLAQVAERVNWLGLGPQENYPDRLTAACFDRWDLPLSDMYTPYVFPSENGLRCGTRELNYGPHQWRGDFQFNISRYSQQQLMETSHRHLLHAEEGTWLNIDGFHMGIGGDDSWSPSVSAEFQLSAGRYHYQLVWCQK

The target of data set [6] is T1, β-galactosidase. Put plainly: Hydrolysis reaction by β-galactosidase monitored by fluorescence intensity over time. The class given is biochemical. Particulars: 1 μM probe, 37° C., 0.1 M sodium phosphate buffer (pH 7.4), 0.1% DMSO, one unit β-galactosidase. From the text:
As a control, 2-Me-4-OMe TokyoGreen βgal was used, which had been already widely used as a fluorescent probe for β-galactosidase measurement.
Advance of the hydrolysis reaction of 2-Me TokyoMagenta βgal by β-galactosidase was monitored by periodically measuring fluorescence intensity. As a control, 2-Me-4-OMe TokyoGreen βgal (9-(4′-methoxy-2′-methylphenyl)-6-(β-D-galactopyranosyloxy)-xanthen-3-one), which had been already widely used as a fluorescent probe for β-galactosidase measurement, was used. The reaction was performed at 37° C. in a 0.1 M sodium phosphate buffer (pH 7.4) containing 1 μM 2-Me TokyoMagenta βgal or 2-Me-4-OMe TokyoGreen βgal and 0.1% dimethyl sulfoxide. One unit (1.3 μg) of β-galactosidase was added 40 seconds afterward.
Target sequence in this assay (P00722 2-1024): as above

Data set [7] in a line: physchem. The data set is classed as physicochemical.
Method: In the table, the items attached with the letter a were measured in a phosphate buffer (pH 9), and the item attached with the letter b was measured in a 0.1 M phosphate buffer containing 1% DMSO.
The measurement was performed in a 0.1 M phosphate buffer (pH 9) containing 1% DMSO. pKa was obtained from the absorbance measured in a phosphate buffer (pH 9) by single-phase or two-phase curve fitting.
A short description of data set [8]: Fluorescence profiles at various pH values, excitation 471 nm (Example 6). The class given is physicochemical. Particulars: shift of pH from the acidic side to the alkaline side. On the procedure: The measurement was performed with changing pH (excitation wavelength, 471 nm) by using a 1 μM solution of 2-Me TokyoMagenta dissolved in a 0.1 M phosphate buffer containing 1% dimethyl sulfoxide (DMSO).
Absorption and fluorescence profiles of 2-Me TokyoMagenta obtained in the step (g) mentioned above were measured at various pH values (excitation wavelength, 471 nm). It was confirmed that, with the shift of pH from the acidic side to the alkaline side, fluorescence intensity decreased around 590 nm, and fluorescence intensity increased around 560 nm.

Data set [9] is described as follows: Absorption and fluorescence profiles at various pH values (Example 2). The data set is classed as physicochemical. The note with it: for maximal absorption wavelength: 1 μM in 0.1 M phosphate buffer, 1% DMSO. The protocol:
The measurement was performed with changing pH. In this specification, Me means methyl group. […] The measurement was performed by using a 1 μM solution of 2-Me TokyoMagenta dissolved in a 0.1 M phosphate buffer containing 1% dimethyl sulfoxide (DMSO).
Absorption and fluorescence profiles of 2-Me TokyoMagenta obtained in the step (g) mentioned above were measured at various pH values. […] It is considered that 2-Me TokyoMagenta exists in an equilibrated state of the non-dissociated form (neutral form) and the dissociated form (anion form) mentioned below depending on pH.

Ten molecules from patent US9688857B2, “Fluorescent probe” (THE UNIVERSITY OF TOKYO, priority 2011, dated 2017) can be followed below.

With `C[Si]1(C)C2=C(Cl)C(=O)C=CC2=C(c2ccccc2C(=O)O)c2ccc(O)c(Cl)c21` [2-COOH DCTM], in [1], the “λmax, fl” value is 607 nm and the Φfl is on record as 0.48. Besides, the “λmax, abs” value in [1] (pH 9) amounted to 591 nm.

Consider `C[Si]1(C)C2=C(F)C(=O)C=CC2=C(c2ccccc2C(=O)O)c2ccc(O)c(F)c21` [2-COOH DFTM], for which, in [1], the “λmax, fl” value came out at 596 nm and the Φfl is 0.54. Moreover, in [1] (pH 9), the “λmax, abs” value is given as 581 nm.

For the molecule `C[Si]1(C)C2=CC(=O)C=CC2=C(c2ccccc2C(=O)O)c2ccc(O)cc21` [2-COOH TM], in data set [1], the “λmax, fl” value is recorded as 598 nm and the Φfl was found to be 0.38. In addition, the “λmax, abs” value in [1] (pH 9) is reported as 582 nm.

With `Cc1ccccc1C1=C2C=CC(=O)C(Cl)=C2[Si](C)(C)c2c1ccc(O)c2Cl` [2-Me DCTM], the “λmax, fl” value in data set [1] was 607 nm. This molecule showed a Φfl in [1] of 0.48. Moreover, the “λmax, abs” value in data set [1] (pH 3) was 477 nm; in [1] (pH 9), 595 nm.

As for `Cc1ccccc1C1=C2C=CC(=O)C(F)=C2[Si](C)(C)c2c1ccc(O)c2F` [2-Me DFTM], the “λmax, fl” value in data set [1] worked out at 598 nm. In addition, in data set [1], the Φfl turned out to be 0.57. Moreover, the “λmax, abs” value in [1] (pH 3) came to 465 nm; in data set [1] (pH 9), 583 nm.

For `CC[Si]1(CC)C2=CC(=O)C=CC2=C(c2ccccc2C)c2ccc(O)cc21` [2-Me DiEtTM], in data set [2], the Φfl amounted to 0.48, the λabs was 582 nm and the λfl is recorded as 601 nm.

Turning to `Cc1ccccc1-c1c2ccc(=O)cc-2oc2ccccc12` [2-Me TokyoGreen, 9-(2′-methylphenyl)-xanthen-3-one, reference compound], the λmax in [3] (Anion form (pH 9)) is on record as 492; in data set [3] (Neutral form (pH 3)), 439.

Consider `Cc1ccccc1C1=C2C=CC(=O)C=C2[Si](C)(C)c2cc(O[C@@H]3O[C@H](CO)[C@H](O)[C@H](O)[C@H]3O)ccc21` [2-Me TokyoMagenta βgal], for which the fluorescence in cells result in [4] (HEK293 lacZ(+) cells) is given as “fluorescence emitted by the fluorescent probe hydrolyzed by β-galactosidase was confirmed”; in data set [4] (HEK293 lacZ(−) cells), “fluorescence was not observed”. In addition, the “λmax after the reaction” value in data set [5] (after β-galactosidase (6 units)) was determined as 582 nm. For the same molecule, the “λmax before the reaction” value in [5] (before β-galactosidase (6 units)) came out at 448 nm. Moreover, in data set [6], the “fluorescence response on hydrolysis by β-galactosidase” value is listed as “increase of fluorescence intensity due to red shift”.

For `Cc1ccccc1C1=C2C=CC(=O)C=C2[Si](C)(C)c2cc(O)ccc21` [2-Me TokyoMagenta], the pKa – broadly, the pH at which an ionisable group is half protonated – in data set [7] was determined as 6.8. In addition, in data set [8], the “fluorescence intensity around 560 nm” value is “increased”. The “fluorescence intensity around 590 nm” value in data set [8] was “decreased”. Moreover, the Φfl is recorded as 0.42 in [2], 0.42 in data set [1], 0.42 in data set [9] (anion form) and 0.10 in data set [9] (neutral form). Moreover, the λabs in data set [2] is reported as 582 nm. Further, in data set [2], the λfl is given as 598 nm. Moreover, the results for the λmax in data set [3] (Anion form (pH 9)) and in [3] (Neutral form (pH 3)) were 582 and 471, respectively. The “absorption wavelength change with change of pH” value in data set [3] (compared with 2-Me TokyoGreen, pH 3 and 9) is given as “larger absorption wavelength change”. Also, in [1], the “λmax, fl” value turned out to be 598 nm. In addition, the “λmax, abs” value was 472 nm in data set [1] (pH 3) and 582 nm in data set [1] (pH 9). For the same molecule, the results for the maximal absorption wavelength result in data set [9] (acidic side of pH) and in data set [9] (alkaline side of pH) were “around 471 nm” and “around 582 nm”, respectively. In addition, the ε is reported as 110000 in [9] (anion form) and 29000 in [9] (neutral form). The “fluorescence emission with excitation light of 550 nm” value in data set [9] (shift of pH from the acidic side to the alkaline side) is reported as “significantly increased”.

Turning to `COc1ccc(-c2c3ccc(=O)cc-3oc3cc(O[C@@H]4O[C@H](CO)[C@H](O)[C@H](O)[C@H]4O)ccc23)c(C)c1` [2-Me-4-OMe TokyoGreen βgal, 9-(4′-methoxy-2′-methylphenyl)-6-(β-D-galactopyranosyloxy)-xanthen-3-one, reference compound], the “fluorescence response on hydrolysis by β-galactosidase” value in [6] is “fluorescence was generated by cancellation of PET”.
